Measurements taken from US20050148518A1, “Anti-bacterial compositions” (Rowett Research Institute, priority 2002, published 2005).

Tests used:
[1] = tested on: E. coli O157:H7 strain NCTC 12900; format: cell-based, Escherichia coli O157:H7; details: for effect on viability of single compounds (FIG. 6A-C): L-lactate 50 mM or coumarin 7.5 mM alone; for dose dependence of inactivation (FIG. 1): L-lactate 50-200 mM, D-lactate 100-200 mM; for effect on viability of single compounds (FIG. 7A): citrate 50 mM or esculetin 7.5 mM alone
[2] = tested on: 8 E. coli O157:H7 strains and 8 non-O157:H7 E. coli strains; format: cell-based
[3] = tested on: Salmonella enteritidis NCTC 4444; experiment: Viability (killing) of S. enteritidis treated with L-lactate and Coumarin; format: cell-based
[4] = tested on: Listeria monocytogenes NCTC 11994; experiment: Viability (killing) of L. monocytogenes treated with L-lactate and Coumarin; format: cell-based
[5] = tested on: methicillin-resistant Staphylococcus aureus (MRSA) strain NCTC 10442; experiment: Viability (killing) of MRSA treated with L-lactate and Coumarin; format: cell-based
[6] = tested on: E. coli O157:H7 strain NCTC 12900; experiment: Growth inhibition monitored by spectrophotometer (650 nm); format: cell-based, Escherichia coli O157:H7; details: 37° C.; for growth compared to the control (FIG. 13B): 0.625 mM Coumarin, 18 mM L-lactate; for growth compared to the control (FIG. 13A): 12.5 mM L-lactate, 1.25 mM esculetin
S. enteritidis = experiment: as above; format: cell-based, Salmonella enteritidis; details: Coumarin 2 mM; L-lactate concentration not given
L. monocytogenes = experiment: as above; format: cell-based, Listeria monocytogenes; details: 1.25 mM Coumarin; L-lactate concentration not given
S. aureus = experiment: as above; format: cell-based, Staphylococcus aureus; details: Coumarin 1.25 mM, L-lactate 5 mM

How did the “effect on viability (FIG. 11A)” value ([1]; Coumarin 6.8 mM alone) turn out when `O=c1ccc2ccccc2o1` [Coumarin, 1,2 benzopyrone] was run?
Its value is “had no effect on the viability”.

What about the “effect on viability of single compounds (FIG. 6A-C)” value (“effect on viability … (FIG. 6A-C)” for short) ([1]; 37° C., pH 3.8) of the same molecule?
Its value is “neither 7.5 mM Coumarin (FIG. 6B) nor 7.5 mM umbelliferone (FIG. 6C) affected viability”.

And the “survival (FIG. 10)” value [2]?
Its value is “had little effect on the survival”.

What about the “effect on viability (FIG. 11B)” value ([3]; Coumarin 6.8 mM alone) of the same molecule?
Its value is “had no effect on the viability”.

What about the “effect on viability (FIG. 8A)” value ([3]; Coumarin 10 mM alone, pH 3.8) of the same molecule?
Its value is “did not affect the viability”.

What about the “effect on viability (FIG. 11C)” value ([4]; Coumarin 6.8 mM alone) of the same molecule?
Its value is “had no effect on the viability”.

And the “effect on viability (FIG. 8B)” value ([4]; Coumarin 10 mM alone, pH 3.8)?
The value was “had no effect on viability”.

What about the “effect on viability (FIG. 11D)” value ([5]; Coumarin 6.8 mM alone) of the same molecule?
The value was “had no effect on the viability”.

What about the “growth compared to the control (FIG. 13B)” value [6] of the same molecule?
The value was “only slightly reduced the extent of growth”.

What about the “growth (FIG. 13C)” value (S. enteritidis) of the same molecule?
The value was “inhibited the growth of S. enteritidis slightly”.

What about the “growth (FIG. 13D)” value (L. monocytogenes) of the same molecule?
The value was “did not affect the growth of L. monocytogenes”.

What about the “growth (FIG. 13E)” value (S. aureus) of the same molecule?
Its value is “inhibited”.

How did the “dose dependence of inactivation (FIG. 1)” value ([1]; pH 3.8, 37° C.) turn out when `C[C@@H](O)C(=O)O` [D-lactate, reference compound] was run?
The value was “dose-dependent”.

Which “reduction in numbers / viability (FIG. 7A, 7B)” value ([1]; citrate 50 mM, benzoate 25 mM, esculetin 7.5 mM, 8 hours, pH 3.8) does the source give for `O=C(O)c1ccccc1` [benzoate] here?
The value was “approximately 4 log10 units”.

How did the “effect on viability of single compounds (FIG. 7A)” value ([1]; pH 3.8) turn out when `O=C(O)CC(O)(CC(=O)O)C(=O)O` [citrate] was run?
Its value is “neither citrate (50 mM) nor esculetin (7.5 mM) when used individually affected the viability”.

What does the source list for `O=c1ccc2cc(O)c(O)cc2o1` [esculetin]?
effect on viability of single compounds (FIG. 7A) ([1]; pH 3.8): neither citrate (50 mM) nor esculetin (7.5 mM) when used individually affected the viability; growth compared to the control (FIG. 13A) [6]: caused a small reduction in the growth

For `COc1cc2ccc(=O)oc2cc1O` [scopoletin], which “effect on viability … (FIG. 6A-C)” value ([1]; 37° C., pH 3.8) is on record?
Its value is “neither L-lactate (50 mM) nor scopoletin (7.5 mM) on their own affected the viability”.

How did the “effect on viability … (FIG. 6A-C)” value ([1]; 37° C., pH 3.8) turn out when `O=c1ccc2ccc(O)cc2o1` [umbelliferone] was run?
Its value is “neither 7.5 mM Coumarin (FIG. 6B) nor 7.5 mM umbelliferone (FIG. 6C) affected viability”.

What does the source list for L-lactate?
antimicrobial effect, L-lactate versus D-lactate (FIG. 2) ([1]; 100 mM each, pH 3.8, 37° C.): exerted a greater antimicrobial effect than 100 mM D-lactate; effect on viability of single compounds (FIG. 6A-C) ([1]; 37° C., pH 3.8): neither L-lactate (50 mM) nor scopoletin (7.5 mM) on their own affected the viability; decrease in viability (FIG. 11A) ([1]; L-lactate 2%, Coumarin 6.8 mM, 10 minutes): approximately 3 log10 units; effectiveness at reducing numbers, L-lactate versus D-lactate (FIG. 1) ([1]; L-lactate 50, 100, 150 or 200 mM, D-lactate 100, 150 or 200 mM, pH 3.8, 37° C.): more effective at reducing numbers of the E. coli O157:H7 strain NCTC 12900 than D-lactate at all concentrations measured; dose dependence of inactivation (FIG. 1) ([1]; pH 3.8, 37° C.): dose-dependent; inactivation (percentage survival), L-lactate versus D-lactate (FIG. 3) ([2]; pH 3.8): much greater than that of D-lactate for all the E. coli strains tested; reduction in viability (FIG. 8B) ([4]; L-lactate 50 mM alone, 8 hours, pH 3.8): greater than 5 log10 units; reduction in viability (FIG. 8C) ([5]; L-lactate 50 mM, Coumarin 10 mM, 8 hours, pH 3.8): greater than 3 log10 units; reduction in viability (FIG. 11D) ([5]; L-lactate 2%, Coumarin 6.8 mM, 60 minutes): approximately 2 log10 units; growth compared to the control (FIG. 13B) [6]: inhibited substantially; growth compared to the control (FIG. 13A) [6]: caused a small reduction in the growth; growth (FIG. 13D) (L. monocytogenes): inhibited growth slightly; growth (FIG. 13E) (S. aureus): inhibited
